The values below come from article PMC12117711, “The contribution of cyclic imide stereoisomers on cereblon-dependent activity†” (Chemical Science, 2025).

Non-standard residues stand in square brackets, D forms with d. No end group written: not given here. *: point of attachment. epicN = C-terminal cyclic asparagine (aspartimide), (R)-epimer, epimer of cN, O=C1C[C@@H](N*)C(=O)N1; cQ = C-terminal cyclic glutamine (glutarimide), (S)-epimer, O=C1CC[C@H](N*)C(=O)N1; Fmoc = O=C(OCC1c2ccccc2-c2ccccc21)*

For data set [1] the following is noted: in vitro, 0.1 M phosphate buffer (pH 7.4), 37 °C; cited from earlier work.
Another data set concerns CRBN. Further details: method as in PMID 29358579, PMID 32929090, PMID 25043012, PMID 25108355. To be noted: cited from earlier work.
In data set [2] the target is T1, BRD4(BD1)-GFP in HEK293T cells (Homo sapiens, UniProt O60885+Q96SW2).
T1 construct: HEK293T cells stably expressing BRD4(BD1) fused to GFP
In words: Degradation assay by flow cytometry, BRD4(BD1)-GFP. The format is cell-based. The conditions noted are these: 76 pM–20 μM, 4 h. As to the method: (v21.1.1) and Adobe Illustrator (v24.1).
MM.1S, MOLM13, Jurkat, and BxPC3 […]
μg/mL), and 10% (v/v) FBS.
Western Blotting Procedures […]
lysates and the concentration was adjusted using lysis buffer. 5× SDS-PAGE loading buffer […]
Protein samples (8–15 μL per lane) were […]
precast gels for medium molecular weight proteins. Gels were transferred to membranes using […]
for high molecular weight proteins. Membranes were stained with Ponceau S solution to visualize transfer and protein loading.
Degradation assay by flow cytometry […]
resuspension in DMEM +/– without phenol red. For IKZF1 degradation assay, propidium […]
equipped with a high throughput sampler. […]
using the BD FACSDiva software v9.1. For each experimental condition, the arithmetic mean […]
comparing compound treatment to DMSO control.
Structural proteomics mass spectrometry sample preparation […]
sample throughout the assay duration. The same analysis was also applied to the (S)- […]
dependent activity, we adjusted the dose-response curves accordingly. Because dose- […]
within the error margins of the original curve. […]
squares F-test. This analysis determined whether there was a statistically significant […]
derived (S)-enantiomer. If there is a statistically significant difference, the null […]
Cells were treated with 1 μM MLN4924
The cells were collected and lysed in […]
centrifugation (21,000 × g, 4 °C, 10 min). […]

The next data set has as its system MOLM13 cells. Put plainly: Global quantitative proteomics of protein levels. The format is cell-based. The conditions noted are these: 4 h; for BRD4 protein levels by global quantitative proteomics: MOLM13 cells, 100 nM; for FC [fold change abundances (R/DMSO)] / logFC (R vs DMSO) / FC [fold change abundances (S/DMSO)] / logFC (S vs DMSO): MOLM13, 100 nM. As to the method:
Global Quantitative Proteomics Sample Preparation and Mass Spectrometry Acquisition Global Quantitative Proteomics was performed according to the previously reported method.7 Briefly, 1.0×10^6 MOLM13 cells were seeded in 12-well plates and small molecules of interest were added, and cells were incubated at 37 °C, 5% CO2 for 4 hours. Cells were collected […]
15 sec in total, 11% amplitude) in lysis buffer (5% SDS in 50 mM triethylammonium bicarbonate (TEAB), pH 7.55), and cleared by centrifugation (21,000 × g, 4 °C, 10 min). After protein quantification by BCA protein assay, the lysates were diluted to 1.5 mg/mL with the lysis buffer. The diluted lysates (60 μL) were reduced by addition of dithiothreitol (20 mM) at 24 °C for 30 min then alkylated by addition of iodoacetamide (40 mM) and incubation in the dark at 24 °C for 30 min.

The target in a further data set is His6-CRBN/DDB1 (Homo sapiens, UniProt Q96SW2). Put plainly: TR-FRET ligand displacement assay (Thal-FITC tracer) with His6-CRBN/DDB1.
In data set [3] the target is T2, His6-CRBN/DDB1 and GST-BRD4(BD2) (Homo sapiens, UniProt O60885+Q96SW2).
T2 construct: His6-CRBN/DDB1 complex and GST-BRD4 BD2 domain; purchased Epicypher (GST-BRD4(BD2)); Bristol Myers Squibb gift (His6-CRBN/DDB1) 15-0013
Put plainly: AlphaScreen ternary complex formation, His6-CRBN/DDB1 and GST-BRD4(BD2). The class given is binding. As to the method:
AlphaScreen was performed according to the previously reported method.7 Briefly, for AlphaScreen of His6-CRBN/DDB1, GST-IKZF1 and (S)-, (R)- or rac-lenalidomide-d3, a solution of 100 nM His6-CRBN/DDB1 and 200 nM GST-IKZF1 in 1x AlphaScreen buffer (5 µL) and a solution of the indicated compound in 1x AlphaScreen buffer (5 µL) were added to a each well of a 384-well Optiplate and incubated at 24 °C for 1 h. To each well, a solution of 5 µL of 60 µg/mL AlphaScreen Glutathione Donor beads, 60 µg/mL AlphaLISA Nickel Chelate Donor beads in 1× AlphaScreen buffer was added to each well and incubated at 24 °C for 1 h in the dark and the plate was analyzed. For AlphaScreen of His6-CRBN/DDB1, GST-BRD4(BD2) and bivalent degraders, a solution of 750 nM His-CRBN/DDB1 and 375 nM GST-BRD4(BD2) in 1x AlphaScreen buffer (5 µL) and a solution of the indicated compound in 1x AlphaScreen buffer (5 µL) were added to a each well of a 384-well Optiplate and incubated at 24 °C for 1 h. To each well, a solution of 5 µL of 60 µg/mL AlphaScreen Glutathione Donor beads, 60 µg/mL AlphaLISA Nickel Chelate Donor beads in 1× AlphaScreen buffer was added to each well and incubated at 24 °C for 1 h in the dark and the plate was analyzed. […]
heated at 95 °C for 5 min. 10 µL of the immunoprecipitated sample was load on a 12% Tris-glycine gel and probe-labeling was visualized by fluorescence signal. Separately, 10 µL of the immunoprecipitated sample and the “input” sample were load on a 12% Tris-glycine gel and analyzed by Western blotting. […]
Parental cell lines were stably infected with a unique 24-nucleotide DNA barcode via lentiviral transduction and blasticidin selection. […] Passing barcoded lines were then pooled (20-25 cell lines per pool) based on doubling time and frozen in assay-ready vials.
Test compounds were added to 384-well plates and run at 8 pt. dose with 3-fold dilutions, the highest concentration of 25 µM in triplicate. These assay ready plates were then seeded with […]

Data set [4] deals with His6-CRBN/DDB1 complex (UniProt Q96SW2). In words: AlphaScreen or HTRF; competitive TR-FRET ligand displacement assay against recombinant His6-CRBN/DDB1; KD from dose-titration of the ligand.
For data set [5], the target named is T3, His6-CRBN/DDB1 complex (UniProt Q96SW2 1-442; Q16531 1-1140).
T3 construct: cereblon (CRBN), E3 ligase substrate adapter; DDB1, in complex with His6-CRBN; Column 'Protein' of S0003 says only 'CRBN'; the text and legends name His6-CRBN/DDB1 for this TR-FRET assay; also called cereblon; source: recombinant
In words: AlphaScreen or HTRF; competitive TR-FRET ligand displacement; peptide titrated against recombinant His6-CRBN/DDB1 (2.5 nM) with the tracer Thalidomide-FITC (50 nM); KD from IC50 by the correction factor 1.426 (tracer KD 2-site 117.3 nM). The conditions noted are these: both partners purified.

Data set [6] deals with T4, His6-CRBN/DDB1 complex (UniProt Q96SW2 1-442; Q16531 1-1140).
T4 construct: cereblon (CRBN), E3 ligase substrate adapter; DDB1, in complex with CRBN; Used as a preformed complex in TR-FRET and AlphaScreen; also called cereblon; source: recombinant
Put plainly: AlphaScreen or HTRF; competitive TR-FRET ligand displacement assay against recombinant His6-CRBN/DDB1; KD from dose-titration of the ligand. The conditions noted are these: both partners purified.

Where [7] appears, read: KD, competitive TR-FRET, His6-CRBN/DDB1.

As for `O=C1CC[C@@H](N2C(=O)c3ccccc3C2=O)C(=O)N1` [(R)-thalidomide], the “t50%ee (racemization half-life)” value in data set [1] is 2.9 h.

Consider `O=C1CC[C@H](N2C(=O)c3ccccc3C2=O)C(=O)N1` [(S)-thalidomide], for which, in the data set on CRBN, the “fold greater binding affinity to CRBN than (R)-thalidomide” value is given as “approximately 10 fold”.

For `[2H]C1([2H])C[C@@]([2H])(N2Cc3cc(NC(=O)CCCCCCCCNC(=O)C[C@@H]4N=C(c5ccc(Cl)cc5)c5c(sc(C)c5C)-n5c(C)nnc54)ccc3C2=O)C(=O)NC1=O` [JQ1-(R)-Len-d3], the “degradation of BRD4(BD1)-GFP” value in data set [2] is “limited activity”. In the data set with MOLM13 cells, the “BRD4 protein levels by global quantitative proteomics” value is listed as “unperturbed”. Besides, the “FC [fold change abundances (R/DMSO)]” value was 3.475 in the data set with MOLM13 cells (protein ARID1A); 0.9606 in the data set with MOLM13 cells (protein CAB39); 1.596 with MOLM13 cells (protein FLII); 1.064 in the data set on MOLM13 cells (protein FUBP3); 1.273 with MOLM13 cells (protein TPD52). Further, the “logFC (R vs DMSO)” value with MOLM13 cells (protein ARID1A) came to 1.826; with MOLM13 cells (protein CAB39), 0.2309; in the data set with MOLM13 cells (protein FLII), 0.7992; in the data set with MOLM13 cells (protein FUBP3) it was 0.3358; with MOLM13 cells (protein TPD52), 0.5322. Also, on His6-CRBN/DDB1 (setting [7]), binding was characterised by a dissociation constant (Kd) of 79 nM.

As for `[2H]C1([2H])C[C@]([2H])(N2Cc3cc(NC(=O)CCCCCCCCNC(=O)C[C@@H]4N=C(c5ccc(Cl)cc5)c5c(sc(C)c5C)-n5c(C)nnc54)ccc3C2=O)C(=O)NC1=O` [JQ1-(S)-Len-d3], in data set [2], the “degradation of BRD4(BD1)-GFP” value is on record as “depleted BRD4 in a dose-dependent manner”. Also, the “ternary complex formation between His6-CRBN/DDB1 and GST-BRD4(BD2)” value in [3] is given as “promoted a significant ternary complex formation”. In the data set with MOLM13 cells, the “BRD4 protein levels by global quantitative proteomics” value was “most significantly downregulated protein”. The “FC [fold change abundances (S/DMSO)]” value in the data set with MOLM13 cells (protein BRD4) is -1.354; in the data set with MOLM13 cells (protein BRI3BP) it was 2.54; in the data set with MOLM13 cells (protein C8orf33), 1.053; in the data set on MOLM13 cells (protein KPNA3) it was 1.127; in the data set on MOLM13 cells (protein PSME2), 1.009. In addition, the “logFC (S vs DMSO)” value with MOLM13 cells (protein BRD4) was -0.6026; with MOLM13 cells (protein BRI3BP) it was 1.398; in the data set with MOLM13 cells (protein C8orf33), 0.3248; in the data set on MOLM13 cells (protein KPNA3) it was 0.397; in the data set on MOLM13 cells (protein PSME2) it was 0.2805. In addition, the Kd is below 1 nM at His6-CRBN/DDB1 (setting [7]) and 2.9 ± 0.2 nM on His6-CRBN/DDB1 (predicted KD of the (S)-stereoisomer, ligand displacement assay adjusted for (S)-stereoisomer, (S)-stereoisomer in the (S)-sample, corrected for racemization).

B1: Fmoc-GGGFepicN (peptide)
peptide: Fmoc-GGGF[epicN]
notes: pentapeptide; source: synthetic peptide
As for B1, the Kd in the data set with His6-CRBN/DDB1 complex [4] worked out at 2870 nM. Further, in the data set with His6-CRBN/DDB1 complex [5], the concentration for half-maximal inhibition (IC50) is 4090 nM.

B2: Fmoc-GGGFcQ (peptide)
peptide: Fmoc-GGGF[cQ]
notes: pentapeptide bearing the (S)-epimer of cyclic glutamine at the C-terminus; also called FcQ pentapeptide; source: synthetic peptide
Consider B2, for which, in the data set with His6-CRBN/DDB1 complex [6], the Kd amounted to 89 nM.
